Values after ≈ are worked out from the molar mass of the structure shown.
Tests used:
Type in all cases: cell-based
[1] = system: MDA-MB-435 (human breast cancer cells); test: MTT in vitro anti-tumor activity test, MDA-MB-435
[2] = system: A549 (human lung cancer cells); test: MTT in vitro anti-tumor activity test, A549
[3] = system: HepG2 (human hepatoma cells); test: MTT in vitro anti-tumor activity test, HepG2
[4] = system: Colo205 (human colon cancer cells); test: MTT in vitro anti-tumor activity test, Colo205
[5] = MDA-MB-435, 100 μg/mL, MTT, 72 h
[6] = MDA-MB-435 human breast cancer cells, MTT, 72 h
[7] = A549 human lung cancer cells, MTT, 72 h
[8] = HepG2 human hepatoma cells, MTT, 72 h
[9] = Colo205 human colon cancer cells, MTT, 72 h
[10] = MTT assay, 72 h incubation, MDA-MB-435 cells
[11] = inhibition at 100 μg/mL, MTT assay, 72 h, MDA-MB-435 cells
[12] = MTT assay, 72 h incubation, A549 cells
[13] = inhibition at 100 μg/mL, MTT assay, 72 h, A549 cells
[14] = MTT assay, 72 h incubation, HepG2 cells
[15] = inhibition at 100 μg/mL, MTT assay, 72 h, HepG2 cells
[16] = MTT assay, 72 h incubation, Colo205 cells
[17] = inhibition at 100 μg/mL, MTT assay, 72 h, Colo205 cells

Compound | MDA-MB-435 IC50 [1, 6] [µg/mL] | A549 IC50 [2, 7] [µg/mL] | HepG2 IC50 [3, 8] [µg/mL] | Colo205 IC50 [4, 9] [µg/mL] | MDA-MB-435 IC50 [1, 10] [µg/mL] | A549 IC50 [2, 12] [µg/mL] | HepG2 IC50 [3, 14] [µg/mL] | Colo205 IC50 [4, 16] [µg/mL] | MDA-MB-435 100 μg/mL IC % [1, 5] [%] | A549 100 μg/mL IC % ([2]; A549, 100 μg/mL, MTT, 72 h) [%] | HepG2 100 μg/mL IC % ([3]; HepG2, 100 μg/mL, MTT, 72 h) [%] | Colo205 100 μg/mL IC % ([4]; Colo205, 100 μg/mL, MTT, 72 h) [%] | MDA-MB-435 100 μg/mL IC % [1, 11] [%] | A549 100 μg/mL IC % [2, 13] [%] | HepG2 100 μg/mL IC % [3, 15] [%] | Colo205 100 μg/mL IC % [4, 17] [%] | IC50 ([1]; Homo sapiens, MDA-MB-435, 72 h, read-out: MDA-MB-435 IC50) [ng/mL] | IC50 ([2]; Homo sapiens, A549, 72 h, read-out: A549 IC50) [ng/mL] | IC50 ([3]; Homo sapiens, HepG2, 72 h, read-out: HepG2 IC50) [µg/mL] | IC50 ([4]; Homo sapiens, COLO 205, 72 h, read-out: Colo205 IC50) [ng/mL]
O=C1c2cc(Cl)ccc2-c2c(OCCn3ccnc3)nc3ccccc3c21 [Compound 10] | 15.02 | 14.48 | 34.93 | 31.06 |  |  |  |  | 99.70 | 97.57 | 92.06 | 80.16 |  |  |  |  |  |  |  | 
COc1ccc2nc(OCCN3CCCC3)c3c(c2c1)C(=O)c1cc(Br)ccc1-3 [Compound 18] | 24.86 | >100 | >100 | >100 |  |  |  |  | 67.72 | 35.69 | 35.48 | 43.88 |  |  |  |  |  |  |  | 
CN(C)CCOc1nc2ccccc2c2c1-c1ccc(Cl)cc1C2=O [Compound 7] | 4.91 | 15.12 | 22.95 | 6.46 |  |  |  |  | 100 | 90.29 | 100 | 100 |  |  |  |  |  |  |  | 
CC[C@@]1(O)C(=O)OCc2c1cc1n(c2=O)Cc2cc3cc(O)ccc3nc2-1 [HCPT, 10-hydroxycamptothecin, reference compound] |  |  |  |  |  |  |  |  | 96.71 | 84.68 | 100 | 88.14 | 96.71 | 84.68 | 100 | 88.14 | 1.27 (≈ 0.00349 µM) | 3.64 (≈ 0.00999 µM) | 0.147 (≈ 0.403 µM) | 4.9 (≈ 0.0134 µM)
COc1ccc2c(c1)C(=O)c1c-2c(=O)n(CCN2CCCC2)c2ccccc12 [Compound 32] |  |  |  |  | 10.73 | 8.58 | 6.92 | 7.45 |  |  |  |  | 96.48 | 92.32 | 70.03 | 92.85 |  |  |  | 

Continued, in another order:

MDA-MB-435 IC50 [1, 6] [µg/mL] | A549 IC50 [2, 7] [µg/mL] | HepG2 IC50 [3, 8] [µg/mL] | Colo205 IC50 [4, 9] [µg/mL] | MDA-MB-435 IC50 [1, 10] [µg/mL] | A549 IC50 [2, 12] [µg/mL] | HepG2 IC50 [3, 14] [µg/mL] | Colo205 IC50 [4, 16] [µg/mL] | Compound | MDA-MB-435 100 μg/mL IC % [1, 5] [%] | A549 100 μg/mL IC % ([2]; A549, 100 μg/mL, MTT, 72 h) [%] | HepG2 100 μg/mL IC % ([3]; HepG2, 100 μg/mL, MTT, 72 h) [%] | Colo205 100 μg/mL IC % ([4]; Colo205, 100 μg/mL, MTT, 72 h) [%] | MDA-MB-435 100 μg/mL IC % [1, 11] [%] | A549 100 μg/mL IC % [2, 13] [%] | HepG2 100 μg/mL IC % [3, 15] [%] | Colo205 100 μg/mL IC % [4, 17] [%] | IC50 ([1]; Homo sapiens, MDA-MB-435, 72 h, read-out: MDA-MB-435 IC50) [ng/mL] | IC50 ([2]; Homo sapiens, A549, 72 h, read-out: A549 IC50) [ng/mL] | IC50 ([3]; Homo sapiens, HepG2, 72 h, read-out: HepG2 IC50) [µg/mL] | IC50 ([4]; Homo sapiens, COLO 205, 72 h, read-out: Colo205 IC50) [ng/mL]
2.66 | 2.02 | 1.58 | 1.15 |  |  |  |  | COc1ccc2c(c1)C(=O)c1c-2c(OCCCN(C)C)nc2cc(OC)c(OC)cc12 [Compound 25] | 85.38 | 100 | 89.70 | 90.36 |  |  |  |  |  |  |  | 
4.09 | 2.91 | 3.48 | 3.49 |  |  |  |  | COc1ccc2c(c1)C(=O)c1c-2c(OCCCN(C)C)nc2ccc(OC)cc12 [Compound 16] | 100 | 100 | 100 | 100 |  |  |  |  |  |  |  | 
 |  |  |  | 1.12 | 3.59 | 3.71 | 15.89 | COc1cc2c3c(c(=O)n(CCCN(C)C)c2cc1OC)-c1ccc(Cl)cc1C3=O [Compound 50] |  |  |  |  | 89.80 | 85.91 | 36.98 | 76.93 |  |  |  | 
 |  |  |  | 5.30 | 10.60 | 8.33 | 1.66 | COc1cc2c3c(c(=O)n(CCN(C)C)c2cc1OC)-c1ccc(Cl)cc1C3=O [Compound 47] |  |  |  |  | 100 | 87.20 | 64.50 | 88.74 |  |  |  | 
 |  |  |  | 1.52 | 3.25 | 11.51 | 3.16 | CN(C)CCCn1c(=O)c2c(c3ccccc31)C(=O)c1cc(Cl)ccc1-2 [Compound 40] |  |  |  |  | 100 | 86.70 | 100 | 100 |  |  |  | 

Reference: patent publication US9181193B2, “Indenoquinolone compound, preparation method and use thereof” (Second Military Medical University, PLA, priority 2010, dated 2015)
